Numbered stars: 1 amine (or outer) side, 2 acyl side, 3 side chain; on linkers, the order of the positions; unused ones are H or OH. Square brackets hold non-standard residues; d marks the D form. Peptide text beside a SMILES is read from it. * marks the point of attachment. 5FAM = O=C1OC2(c3ccc(O)cc3Oc3cc(O)ccc32)c2ccc(C(=O)*)cc21; NHCH2C6H4(4-CH2CONH2) = NC(=O)Cc1ccc(CN*)cc1; X1 = O=C(Cc1ccc(CN[*:1])cc1)[*:2]
Biological target: TNFα (Homo sapiens, UniProt P01375)
Assay: MST binding affinity of resynthesized NNP hits to TNFα
Set-up: purchased R&D Systems, Inc. 210-TA/CF
Details: read-out: KD (nM) [95% conf. int], NNP2 library hit, target TNFα, one-site binding model
Experimental: Hit binding affinity to various targets were determined using Microscale Thermophoresis (MST). MST experiments were performed on a Monolith NT.115pico (NanoTemper Technologies GmbH, Munich, Germany). Measurements were performed at room temperature, in triplicate with incubation periods of 15, 30 and 45 minutes. […] Targets were labeled using Nanotemper Monolith 2nd Generation Protein Labeling Kits. RED-MALEIMIDE (Maleimide-647-dye) labeling kit was used for K-Ras and RED-NHS (NHS-647-dye) labeling kit was used for IL-6, IL-6R, TNFα and ASGPR. The buffer for the ASGPR contained 20 mM HEPES pH 7.4, 150 mM NaCl, 10 mM MgCl2, 2 mM CaCl2, 0.05% Pluronic F-127, and 1 mM DTT; for IL-6 contained 20 mM HEPES pH 7.4, 150 mM KCl, 10 mM MgCl2, and 0.1% Pluronic F-127; for the soluble IL-6 receptor 20 mM HEPES pH 7.4, 150 mM NaCl, 10 mM MgCl2, and 0.05% Tween-20; for K-Ras 20 mM HEPES pH 7.4, 150 mM NaCl, 10 mM MgCl2, 0.05% Tween-20 and 1 mM DTT; for TNFα 10 mM HEPES pH 7.4, 150 mM NaCl, 10 mM MgCl2, 0.05% Polysorbate-20. Triplicate data was analyzed using MO.AffinityAnalysis software (NanoTemper Technologies GmbH).

Chain of TNFα (P01375 77-233 limits assumed): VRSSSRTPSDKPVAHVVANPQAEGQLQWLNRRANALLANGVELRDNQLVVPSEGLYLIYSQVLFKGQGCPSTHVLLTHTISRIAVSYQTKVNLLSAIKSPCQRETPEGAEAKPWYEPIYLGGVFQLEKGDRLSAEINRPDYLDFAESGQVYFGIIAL

Compound	Kd
CC(C)C[C@H](NC(=O)[C@@H](CCCNC(=N)N)NC(=O)[C@@H](C)NC(=O)Cc1ccc(CNC(=O)[C@H](Cc2ccccc2)NC(=O)[C@@H](CCCNC(=N)N)NC(=O)[C@@H](CC(N)=O)NC(=O)Cc2ccc(CNC(=O)[C@H](Cc3ccccc3)NC(=O)[C@@H](CCCCN)NC(=O)[C@@H](C)NC(=O)Cc3ccc(CNC(=O)[C@H](C)NC(=O)[C@@H](CCCNC(=N)N)NC(=O)[C@@H](Cc4ccccc4)NC(=O)Cc4ccc(CNC(=O)[C@H](CC(C)C)NC(=O)[C@@H](CCCCN)NC(=O)[C@@H](CC(C)C)NC(=O)Cc5ccc(CNC(=O)[C@H](CC(C)C)NC(=O)[C@@H](CCCNC(=N)N)NC(=O)[C@@H](CC(C)C)NC(=O)Cc6ccc(CNC(=O)[C@H](CC(C)C)NC(=O)[C@@H](CC(C)C)NC(=O)[C@@H](Cc7ccc(O)cc7)NC(=O)c7ccc8c(c7)C(=O)OC87c8ccc(O)cc8Oc8cc(O)ccc87)cc6)cc5)cc4)cc3)cc2)cc1)C(=O)NCc1ccc(CC(=O)N[C@H](Cc2c[nH]c3ccccc23)C(=O)N[C@H](CCCCN)C(=O)N[C@@H](CC(C)C)C(=O)NCc2ccc(CC(=O)N3CCC[C@@H]3C(=O)N[C@H](C)C(=O)N[C@@H](C)C(=O)NCc3ccc(CC(N)=O)cc3)cc2)cc1 [TNF-31-14] (5FAM-[dY][dL]L[X1][dL][dR]L[X1][dL][dK]L[X1][dF][dR]A[X1][dA][dK]F[X1][dN][dR]F[X1][dA][dR]L[X1][dW][dK]L[X1][dP][dA]A-{NHCH2C6H4(4-CH2CONH2)})	35 nM
CC(C)C[C@H](NC(=O)[C@@H](CCCNC(=N)N)NC(=O)[C@@H](CCC(=O)O)NC(=O)Cc1ccc(CNC(=O)[C@H](C)NC(=O)[C@@H](CCCCN)NC(=O)[C@@H](Cc2ccc(O)cc2)NC(=O)Cc2ccc(CNC(=O)[C@H](C)NC(=O)[C@@H](CCCNC(=N)N)NC(=O)[C@@H](Cc3ccccc3)NC(=O)Cc3ccc(CNC(=O)[C@H](CC(C)C)NC(=O)[C@H](NC(=O)[C@@H](CCCNC(=N)N)NC(=O)Cc4ccc(CNC(=O)[C@H](CC(C)C)NC(=O)[C@@H](CCCNC(=N)N)NC(=O)[C@@H](CC(C)C)NC(=O)Cc5ccc(CNC(=O)[C@H](CC(C)C)NC(=O)[C@H](NC(=O)[C@@H](CCCCN)NC(=O)c6ccc7c(c6)C(=O)OC76c7ccc(O)cc7Oc7cc(O)ccc76)C(C)C)cc5)cc4)C(C)C)cc3)cc2)cc1)C(=O)NCc1ccc(CC(=O)N2CCC[C@@H]2C(=O)N[C@@H](C(=O)NCC(=O)NCc2ccc(CC(=O)N[C@H](CCCCN)C(=O)N[C@H](Cc3ccccc3)C(=O)N[C@@H](Cc3ccccc3)C(=O)NCc3ccc(CC(=O)N[C@H](Cc4c[nH]cn4)C(=O)N[C@H](CCC(=O)O)C(=O)N[C@H](C(=O)NCc4ccc(CC(N)=O)cc4)C(C)C)cc3)cc2)C(C)C)cc1 [TNF-31-15] (5FAM-[dK][dV]L[X1][dL][dR]L[X1][dR][dV]L[X1][dF][dR]A[X1][dY][dK]A[X1][dE][dR]L[X1][dP][dV]G[X1][dK][dF]F[X1][dH][dE]V-{NHCH2C6H4(4-CH2CONH2)})	23 nM
CC(C)C[C@H](NC(=O)[C@@H](CCC(=O)O)NC(=O)[C@H]1CCCN1C(=O)Cc1ccc(CNC(=O)[C@H](CC(C)C)NC(=O)[C@@H](CCCCN)NC(=O)[C@@H](Cc2ccccc2)NC(=O)Cc2ccc(CNC(=O)[C@@H](NC(=O)[C@@H](CCC(=O)O)NC(=O)[C@@H](Cc3ccccc3)NC(=O)Cc3ccc(CNC(=O)[C@H](CC(C)C)NC(=O)[C@@H](CCCNC(=N)N)NC(=O)[C@@H](CC(C)C)NC(=O)Cc4ccc(CNC(=O)[C@H](CC(C)C)NC(=O)[C@H](NC(=O)[C@@H](CCCCN)NC(=O)c5ccc6c(c5)C(=O)OC65c6ccc(O)cc6Oc6cc(O)ccc65)C(C)C)cc4)cc3)C(C)C)cc2)cc1)C(=O)NCc1ccc(CC(=O)N[C@H](Cc2ccccc2)C(=O)N[C@@H](C(=O)N[C@@H](C)C(=O)NCc2ccc(CC(=O)N[C@H](Cc3c[nH]cn3)C(=O)N[C@H](CCC(=O)O)C(=O)N[C@@H](CC(C)C)C(=O)NCc3ccc(CC(=O)N[C@H](CCC(=O)O)C(=O)N[C@H](Cc4ccc(O)cc4)C(=O)N[C@@H](Cc4ccccc4)C(=O)NCc4ccc(CC(=O)N[C@@H](C(=O)N[C@H](CO)C(=O)N[C@H](C(=O)NCc5ccc(CC(N)=O)cc5)C(C)C)[C@H](C)O)cc4)cc3)cc2)[C@H](C)O)cc1 [TNF-31-16] (5FAM-[dK][dV]L[X1][dL][dR]L[X1][dF][dE]V[X1][dF][dK]L[X1][dP][dE]L[X1][dF][dT]A[X1][dH][dE]L[X1][dE][dY]F[X1][dT][dS]V-{NHCH2C6H4(4-CH2CONH2)})	180 nM
CC(C)C[C@H](NC(=O)[C@@H](CCCNC(=N)N)NC(=O)[C@@H](CC(C)C)NC(=O)Cc1ccc(CNC(=O)[C@H](CC(C)C)NC(=O)[C@H](NC(=O)[C@@H](CCCCN)NC(=O)c2ccc3c(c2)C(=O)OC32c3ccc(O)cc3Oc3cc(O)ccc32)C(C)C)cc1)C(=O)NCc1ccc(CC(=O)N[C@H](CCCNC(=N)N)C(=O)N[C@@H](C(=O)N[C@@H](CC(C)C)C(=O)NCc2ccc(CC(=O)N[C@H](Cc3ccccc3)C(=O)N[C@H](CCCNC(=N)N)C(=O)N[C@@H](C)C(=O)NCc3ccc(CC(=O)N[C@H](C)C(=O)N[C@H](CCCCN)C(=O)N[C@@H](Cc4ccccc4)C(=O)NCc4ccc(CC(=O)N[C@H](CC(N)=O)C(=O)N[C@H](CCCNC(=N)N)C(=O)N[C@@H](Cc5ccccc5)C(=O)NCc5ccc(CC(=O)N6CCC[C@@H]6C(=O)N[C@@H](C(=O)NCC(=O)NCc6ccc(CC(=O)N[C@H](CCC(=O)O)C(=O)N[C@H](CCCNC(=N)N)C(=O)N[C@H](C(=O)NCc7ccc(CC(=O)N[C@H](Cc8ccc(O)cc8)C(=O)N[C@H](CCCNC(=N)N)C(=O)N[C@@H](Cc8ccccc8)C(=O)NCc8ccc(CC(N)=O)cc8)cc7)C(C)C)cc6)C(C)C)cc5)cc4)cc3)cc2)C(C)C)cc1 [TNF-39-1] (5FAM-[dK][dV]L[X1][dL][dR]L[X1][dR][dV]L[X1][dF][dR]A[X1][dA][dK]F[X1][dN][dR]F[X1][dP][dV]G[X1][dE][dR]V[X1][dY][dR]F-{NHCH2C6H4(4-CH2CONH2)})	116 nM
CC(C)C[C@H](NC(=O)[C@@H](CCCNC(=N)N)NC(=O)CNC(=O)Cc1ccc(CNC(=O)[C@H](CC(C)C)NC(=O)[C@@H](CC(C)C)NC(=O)[C@@H](Cc2ccc(O)cc2)NC(=O)c2ccc3c(c2)C(=O)OC32c3ccc(O)cc3Oc3cc(O)ccc32)cc1)C(=O)NCc1ccc(CC(=O)N[C@H](Cc2ccccc2)C(=O)N[C@H](CCC(=O)O)C(=O)N[C@H](C(=O)NCc2ccc(CC(=O)N[C@H](Cc3c[nH]c4ccccc34)C(=O)N[C@H](CCCNC(=N)N)C(=O)N[C@@H](CC(C)C)C(=O)NCc3ccc(CC(=O)N[C@H](Cc4c[nH]c5ccccc45)C(=O)N[C@H](CCCNC(=N)N)C(=O)N[C@H](C(=O)NCc4ccc(CC(=O)N[C@H](CCCNC(=N)N)C(=O)N[C@H](Cc5ccc(O)cc5)C(=O)N[C@@H](CC(C)C)C(=O)NCc5ccc(CC(=O)N6CCC[C@@H]6C(=O)NCC(=O)N[C@H](C(=O)NCc6ccc(CC(=O)N[C@H](Cc7c[nH]cn7)C(=O)N[C@H](CO)C(=O)N[C@@H](CC(C)C)C(=O)NCc7ccc(CC(=O)N[C@H](Cc8ccccc8)C(=O)N[C@H](CCCCN)C(=O)NCC(=O)NCc8ccc(CC(N)=O)cc8)cc7)cc6)C(C)C)cc5)cc4)C(C)C)cc3)cc2)C(C)C)cc1 [TNF-39-2] (5FAM-[dY][dL]L[X1]G[dR]L[X1][dF][dE]V[X1][dW][dR]L[X1][dW][dR]V[X1][dR][dY]L[X1][dP]GV[X1][dH][dS]L[X1][dF][dK]G-{NHCH2C6H4(4-CH2CONH2)})	200 nM
CC(C)C[C@H](NC(=O)[C@@H](CCCCN)NC(=O)[C@@H](Cc1c[nH]c2ccccc12)NC(=O)Cc1ccc(CNC(=O)[C@@H](NC(=O)CNC(=O)[C@H]2CCCN2C(=O)Cc2ccc(CNC(=O)[C@H](CC(C)C)NC(=O)[C@@H](Cc3ccc(O)cc3)NC(=O)[C@@H](CCCNC(=N)N)NC(=O)Cc3ccc(CNC(=O)[C@H](Cc4ccccc4)NC(=O)[C@@H](CCCCN)NC(=O)[C@@H](C)NC(=O)Cc4ccc(CNC(=O)[C@H](C)NC(=O)[C@@H](CCCNC(=N)N)NC(=O)[C@@H](Cc5ccccc5)NC(=O)Cc5ccc(CNC(=O)[C@@H](NC(=O)[C@@H](CCC(=O)O)NC(=O)[C@@H](Cc6ccccc6)NC(=O)Cc6ccc(CNC(=O)[C@H](CC(C)C)NC(=O)[C@@H](CCCNC(=N)N)NC(=O)[C@@H](CC(C)C)NC(=O)Cc7ccc(CNC(=O)[C@H](Cc8ccccc8)NC(=O)[C@@H](CC(C)C)NC(=O)[C@H](NC(=O)c8ccc9c(c8)C(=O)OC98c9ccc(O)cc9Oc9cc(O)ccc98)[C@H](C)O)cc7)cc6)C(C)C)cc5)cc4)cc3)cc2)C(C)C)cc1)C(=O)NCc1ccc(CC(=O)N[C@H](Cc2ccc(O)cc2)C(=O)N[C@H](CCCNC(=N)N)C(=O)N[C@@H](Cc2ccccc2)C(=O)NCc2ccc(CC(N)=O)cc2)cc1 [TNF-39-3] (5FAM-[dT][dL]F[X1][dL][dR]L[X1][dF][dE]V[X1][dF][dR]A[X1][dA][dK]F[X1][dR][dY]L[X1][dP]GV[X1][dW][dK]L[X1][dY][dR]F-{NHCH2C6H4(4-CH2CONH2)})	130 nM

From patent publication US20230393140A1, “BINDING ASSAYS INVOLVING A PLURALITY OF SYNTHETIC COMPOUNDS, TARGETS, AND COUNTER TARGETS” (SRI International, priority 2020, published 2023)
